From patent US6770597B2, “Benzohydrazide derivatives as herbicides and desiccant compositions containing them” (Ishihara Sangyo Kaisha, Ltd., priority 2002, dated 2004)

Columns and labels:
Assay type in all cases: in vivo
[1] = tested on: redroot pigweed (Amaranthus retrofiexus, AMARE); assay: Greenhouse herbicide screen, pre-emerge application, phytotoxicity rating; settings: PRE emergent, 14 days after application, rating scale 0-100
Summary of the method: (§1)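 Crop and weed responses were judged visually on a 0–100 scale two weeks post-treatment. Treatments: acetone solutions, 15–1000 g ai/ha, sprayed at 187 l/ha onto pre-emerge soil or 2–3-leaf plants.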

[2] = tested on: lambsquarters (Chenopodium album, CHEAL); assay: as above; settings: PRE emergent, 14 days after application, rating scale 0-100
Summary of the method: as §1

[3] = tested on: green foxtail (Setaria viridis, SETVI); assay: as above; settings: PRE emergent, 14 days after application, rating scale 0-100
Summary of the method: as §1

[4] = tested on: common ragweed (Ambrosia artemisiifolia L., AMBEL); assay: as above; settings: PRE emergent, 14 days after application, rating scale 0-100
Summary of the method: as §1

[5] = tested on: johnsongrass (Sorghum halepense, SORHA); assay: as above; settings: PRE emergent, 14 days after application, rating scale 0-100
Summary of the method: as §1

[6] = tested on: sicklepod (Cassia obtusifolia, CASOB); assay: as above; settings: PRE emergent, 14 days after application, rating scale 0-100
Summary of the method: as §1

[7] = tested on: cocklebur (Xanthium strumarium, XANST); assay: as above; settings: PRE emergent, 14 days after application, rating scale 0-100
Summary of the method: as §1

[8] = tested on: large crabgrass (Digitaria sanguinalis, DIGSA); assay: as above; settings: PRE emergent, 14 days after application, rating scale 0-100
Summary of the method: as §1

[9] = tested on: barnyardgrass (Echinochloa crus-galli, ECHCG); assay: as above; settings: PRE emergent, 14 days after application, rating scale 0-100
Summary of the method: as §1

[10] = tested on: ivyleaf morningglory (Ipomoea hederacea, IPOHE); assay: as above; settings: PRE emergent, 14 days after application, rating scale 0-100
Summary of the method: as §1

[11] = tested on: velvetleaf (Abutilon theophrasti, ABUTH); assay: as above; settings: PRE emergent, 14 days after application, rating scale 0-100
Summary of the method: as §1

[12] = tested on: upland rice (Oryza sp., var.Cocodrie, RICE); assay: Greenhouse herbicide screen, pre-emerge application, crop damage rating; settings: PRE emergent, 14 days after application, rating scale 0-100
Summary of the method: as §1

[13] = tested on: field corn (Zea mays L., var. Dekalb 535, CORN); assay: as above; settings: PRE emergent, 14 days after application, rating scale 0-100
Summary of the method: as §1

[14] = tested on: redroot pigweed (Amaranthus retrofiexus, AMARE); assay: Greenhouse herbicide screen, post-emerge application, phytotoxicity rating; settings: POST emergent, 14 days after application
Summary of the method: as §1

[15] = tested on: lambsquarters (Chenopodium album, CHEAL); assay: as above; settings: POST emergent, 14 days after application, scale 0-100
Summary of the method: as §1

[16] = tested on: green foxtail (Setaria viridis, SETVI); assay: as above; settings: POST emergent, 14 days after application, scale 0-100
Summary of the method: as §1

[17] = tested on: common ragweed (Ambrosia artemisiifolia L., AMBEL); assay: as above; settings: POST emergent, 14 days after application, scale 0-100
Summary of the method: as §1

[18] = tested on: johnsongrass (Sorghum halepense, SORHA); assay: as above; settings: POST emergent, 14 days after application, scale 0-100
Summary of the method: as §1

[19] = tested on: sicklepod (Cassia obtusifolia, CASOB); assay: as above; settings: POST emergent, 14 days after application, scale 0-100
Summary of the method: as §1

[20] = tested on: cocklebur (Xanthium strumarium, XANST); assay: as above; settings: POST emergent, 14 days after application, scale 0-100
Summary of the method: as §1

[21] = tested on: large crabgrass (Digitaria sanguinalis, DIGSA); assay: as above; settings: POST emergent, 14 days after application, scale 0-100
Summary of the method: as §1

[22] = tested on: barnyardgrass (Echinochloa crus-galli, ECHCG); assay: as above; settings: POST emergent, 14 days after application, scale 0-100
Summary of the method: as §1

[23] = tested on: ivyleaf morningglory (Ipomoea hederacea, IPOHE); assay: as above; settings: POST emergent, 14 days after application, scale 0-100
Summary of the method: as §1

[24] = tested on: velvetleaf (Abutilon theophrasti, ABUTH); assay: as above; settings: POST emergent, 14 days after application, scale 0-100
Summary of the method: as §1

[25] = tested on: upland rice (Oryza sp., var.Cocodrie, RICE); assay: Greenhouse herbicide screen, post-emerge application, crop damage rating; settings: POST emergent, 14 days after application, scale 0-100
Summary of the method: as §1

[26] = tested on: field corn (Zea mays L., var. Dekalb 535, CORN); assay: as above; settings: POST emergent, 14 days after application, scale 0-100
Summary of the method: as §1

[27] = 63 g ai/ha, scale 0-100 (0 no damage, 100 complete death)

CC(=O)OC(=NN(C)C)c1cc(-n2c(=O)cc(C(F)(F)F)n(C)c2=O)ccc1Cl [Compound 4-4]
0: phytotoxicity rating XANST ([7]; 63 g ai/ha) | phytotoxicity rating XANST ([20]; 63 g ai/ha)
30: phytotoxicity rating ECHCG ([9]; 63 g ai/ha) | phytotoxicity rating ECHCO ([22]; 63 g ai/ha)
25: crop damage rating CORN ([13]; 63 g ai/ha) | crop damage rating CORN ([26]; 63 g ai/ha)
90: phytotoxicity rating SETVI ([3]; 250 g ai/ha) | phytotoxicity rating SORHA ([5]; 250 g ai/ha) | phytotoxicity rating ECHCG ([9]; 250 g ai/ha) | crop damage rating CORN ([13]; 250 g ai/ha) | phytotoxicity rating SETVI ([16]; 250 g ai/ha) | phytotoxicity rating SORHA ([18]; 250 g ai/ha) | phytotoxicity rating ECHCO ([22]; 250 g ai/ha) | crop damage rating CORN ([26]; 250 g ai/ha)
100: phytotoxicity rating AMARE ([1]; 63 g ai/ha) | phytotoxicity rating AMARE ([1]; 250 g ai/ha) | phytotoxicity rating CHEAL ([2]; 63 g ai/ha) | phytotoxicity rating CHEAL ([2]; 250 g ai/ha) | phytotoxicity rating AMBEL ([4]; 250 g ai/ha) | phytotoxicity rating DIGSA ([8]; 250 g ai/ha) | phytotoxicity rating IPOHE ([10]; 63 g ai/ha) | phytotoxicity rating IPOHE ([10]; 250 g ai/ha) | phytotoxicity rating ABUTH ([11]; 63 g ai/ha) | phytotoxicity rating ABUTH ([11]; 250 g ai/ha) | phytotoxicity rating AMARE [14, 27] | phytotoxicity rating AMARE ([14]; 250 g ai/ha, scale 0-100) | phytotoxicity rating CHEAL ([15]; 63 g ai/ha) | phytotoxicity rating CHEAL ([15]; 250 g ai/ha) | phytotoxicity rating AMBEL ([17]; 250 g ai/ha) | phytotoxicity rating DIGSA ([21]; 250 g ai/ha) | phytotoxicity rating IPOHE ([23]; 63 g ai/ha) | phytotoxicity rating IPOHE ([23]; 250 g ai/ha) | phytotoxicity rating ABUTH ([24]; 63 g ai/ha) | phytotoxicity rating ABUTH ([24]; 250 g ai/ha)
65: phytotoxicity rating CASOB ([6]; 63 g ai/ha) | phytotoxicity rating CASOB ([19]; 63 g ai/ha)
55: crop damage rating RICE ([12]; 250 g ai/ha) | crop damage rating RICE ([25]; 250 g ai/ha)
75: phytotoxicity rating AMBEL ([4]; 63 g ai/ha) | phytotoxicity rating AMBEL ([17]; 63 g ai/ha)
60: phytotoxicity rating SORHA ([5]; 63 g ai/ha) | phytotoxicity rating XANST ([7]; 250 g ai/ha) | phytotoxicity rating SORHA ([18]; 63 g ai/ha) | phytotoxicity rating XANST ([20]; 250 g ai/ha)
98: phytotoxicity rating CASOB ([6]; 250 g ai/ha) | phytotoxicity rating DIGSA ([8]; 63 g ai/ha) | phytotoxicity rating CASOB ([19]; 250 g ai/ha) | phytotoxicity rating DIGSA ([21]; 63 g ai/ha)
10: crop damage rating RICE ([12]; 63 g ai/ha) | crop damage rating RICE ([25]; 63 g ai/ha)
50: phytotoxicity rating SETVI ([3]; 63 g ai/ha) | phytotoxicity rating SETVI ([16]; 63 g ai/ha)

CC1CCCC(C)N1N=C(OC(=O)C(Cl)Cl)c1cc(-n2c(=O)cc(C(F)(F)F)n(C)c2=O)c(F)cc1Cl (centres unmarked) [Compound 4-8]
80: phytotoxicity rating SORHA ([5]; 250 g ai/ha) | phytotoxicity rating AMBEL ([17]; 63 g ai/ha)
30: phytotoxicity rating XANST ([7]; 63 g ai/ha)
60: phytotoxicity rating AMBEL ([4]; 63 g ai/ha) | phytotoxicity rating CASOB ([6]; 63 g ai/ha) | phytotoxicity rating XANST ([7]; 250 g ai/ha) | phytotoxicity rating SETVI ([16]; 250 g ai/ha)
95: phytotoxicity rating IPOHE ([10]; 63 g ai/ha)
99: phytotoxicity rating AMBEL ([4]; 250 g ai/ha) | phytotoxicity rating DIGSA ([8]; 250 g ai/ha)
75: phytotoxicity rating CASOB ([19]; 250 g ai/ha) | phytotoxicity rating DIGSA ([21]; 250 g ai/ha)
100: phytotoxicity rating AMARE ([1]; 63 g ai/ha) | phytotoxicity rating AMARE ([1]; 250 g ai/ha) | phytotoxicity rating CHEAL ([2]; 63 g ai/ha) | phytotoxicity rating CHEAL ([2]; 250 g ai/ha) | phytotoxicity rating SETVI ([3]; 250 g ai/ha) | phytotoxicity rating IPOHE ([10]; 250 g ai/ha) | phytotoxicity rating ABUTH ([11]; 63 g ai/ha) | phytotoxicity rating ABUTH ([11]; 250 g ai/ha) | phytotoxicity rating AMARE [14, 27] | phytotoxicity rating AMARE ([14]; 250 g ai/ha, scale 0-100) | phytotoxicity rating CHEAL ([15]; 63 g ai/ha) | phytotoxicity rating CHEAL ([15]; 250 g ai/ha) | phytotoxicity rating AMBEL ([17]; 250 g ai/ha) | phytotoxicity rating XANST ([20]; 63 g ai/ha) | phytotoxicity rating XANST ([20]; 250 g ai/ha) | phytotoxicity rating IPOHE ([23]; 63 g ai/ha) | phytotoxicity rating IPOHE ([23]; 250 g ai/ha) | phytotoxicity rating ABUTH ([24]; 63 g ai/ha) | phytotoxicity rating ABUTH ([24]; 250 g ai/ha) | crop damage rating CORN ([26]; 250 g ai/ha)
50: phytotoxicity rating DIGSA ([8]; 63 g ai/ha) | crop damage rating CORN ([13]; 250 g ai/ha)
0: phytotoxicity rating SORHA ([5]; 63 g ai/ha) | phytotoxicity rating ECHCG ([9]; 63 g ai/ha) | crop damage rating RICE ([12]; 63 g ai/ha) | crop damage rating RICE ([12]; 250 g ai/ha) | crop damage rating CORN ([13]; 63 g ai/ha) | phytotoxicity rating DIGSA ([21]; 63 g ai/ha) | crop damage rating RICE ([25]; 63 g ai/ha)
10: phytotoxicity rating SORHA ([18]; 63 g ai/ha)
70: phytotoxicity rating CASOB ([19]; 63 g ai/ha) | phytotoxicity rating ECHCO ([22]; 63 g ai/ha)
65: phytotoxicity rating SETVI ([3]; 63 g ai/ha) | phytotoxicity rating SORHA ([18]; 250 g ai/ha)
15: phytotoxicity rating ECHCG ([9]; 250 g ai/ha) | phytotoxicity rating SETVI ([16]; 63 g ai/ha) | crop damage rating RICE ([25]; 250 g ai/ha)
90: phytotoxicity rating CASOB ([6]; 250 g ai/ha) | phytotoxicity rating ECHCO ([22]; 250 g ai/ha) | crop damage rating CORN ([26]; 63 g ai/ha)
